Experimental data: patent EP0237239A2, “New compounds” (THE WELLCOME FOUNDATION LIMITED, priority 1986, dated 1987)
pIC50: −log10 of the molar value. Where a name gives a salt, the structure may show the parent alone.

Target: T1, angiotension converting enzyme (Cavia porcellus, UniProt H0UWL7)
T1 construct: from tissue; host or cells: guinea pig ileum
T1 sequence (H0UWL7 33-1302): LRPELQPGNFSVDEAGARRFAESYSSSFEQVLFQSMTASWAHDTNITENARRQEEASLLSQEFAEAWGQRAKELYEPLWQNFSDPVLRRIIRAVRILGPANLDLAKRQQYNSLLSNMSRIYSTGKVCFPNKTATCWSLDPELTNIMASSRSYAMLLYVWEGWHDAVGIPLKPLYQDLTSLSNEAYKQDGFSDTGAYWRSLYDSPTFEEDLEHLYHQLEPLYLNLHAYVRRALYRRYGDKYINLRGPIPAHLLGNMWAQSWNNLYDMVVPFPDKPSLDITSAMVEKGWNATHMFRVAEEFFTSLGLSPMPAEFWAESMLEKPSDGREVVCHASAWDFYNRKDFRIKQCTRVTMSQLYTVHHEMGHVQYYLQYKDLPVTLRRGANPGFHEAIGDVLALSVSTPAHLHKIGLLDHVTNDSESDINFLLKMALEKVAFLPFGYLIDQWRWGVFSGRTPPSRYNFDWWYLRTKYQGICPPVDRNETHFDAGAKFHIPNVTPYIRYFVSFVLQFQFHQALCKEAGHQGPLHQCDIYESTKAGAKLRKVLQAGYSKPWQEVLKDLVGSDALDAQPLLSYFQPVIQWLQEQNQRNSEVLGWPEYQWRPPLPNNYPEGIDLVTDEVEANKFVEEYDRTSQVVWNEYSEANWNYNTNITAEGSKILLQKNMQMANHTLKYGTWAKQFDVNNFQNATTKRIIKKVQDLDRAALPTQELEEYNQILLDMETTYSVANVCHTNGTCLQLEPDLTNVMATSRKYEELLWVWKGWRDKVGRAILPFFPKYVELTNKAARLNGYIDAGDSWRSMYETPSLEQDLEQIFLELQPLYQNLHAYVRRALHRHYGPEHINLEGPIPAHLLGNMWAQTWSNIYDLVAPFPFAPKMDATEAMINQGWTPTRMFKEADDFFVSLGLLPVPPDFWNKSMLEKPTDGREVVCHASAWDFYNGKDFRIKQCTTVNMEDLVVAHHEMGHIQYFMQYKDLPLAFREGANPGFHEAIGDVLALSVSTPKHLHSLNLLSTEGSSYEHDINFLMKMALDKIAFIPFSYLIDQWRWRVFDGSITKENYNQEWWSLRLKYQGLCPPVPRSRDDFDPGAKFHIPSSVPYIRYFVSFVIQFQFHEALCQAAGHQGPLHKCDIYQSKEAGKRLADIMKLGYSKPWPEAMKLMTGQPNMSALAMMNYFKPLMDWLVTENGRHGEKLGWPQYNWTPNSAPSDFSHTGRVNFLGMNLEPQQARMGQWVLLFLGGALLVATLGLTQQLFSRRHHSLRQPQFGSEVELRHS
Test: angiotensin converting enzyme inhibition in guinea pig ileum (inhibition of contractile responses to Angiotensin I)
Format: cell-based
Conditions: dose-dependent inhibition of contractile responses to Angiotensin I, in vitro, read-out: EC50 (the source's name)
Excerpt: (b) ACE inhibition in vitro
In any assay for angiotension converting enzyme inhibition in guinea pig ileum, dose-dependent inhibition of contractile responses to Angiotensin I gave the following results: […]

pIC50	Structure (SMILES)
7.87	CC(C)NCC(O)COc1cccc2c(OCC(=O)NCCCC[C@H](NC(C)C(=O)N3CCC[C@H]3C(=O)O)C(=O)O)cccc12 (stereo partly drawn) [Example 2, N-(l(S)-Carboxy-5-(2-[5-(2(S,R)-hydroxy-3-isopropylaminopropoxy)-naphth-1-yloxy]acetamido)pentyl)-(S,R)-alanyl-(S)-proline dihydrochloride acetate hemihydrate]
8.02	CC(C)NCC(O)COc1cccc2ccc(CNCCCC[C@H](NC(C)C(=O)N3CCC[C@H]3C(=O)O)C(=O)O)cc12 (stereo partly drawn) [Example 5, N-(1(S)-Carboxy-5-[8-(2(S,R)-hydroxy-3-isopropylaminopropoxy)naphth-2-ylmethylamino]pentyl)-(S,R)-alanyl-(S)-proline tristrifluoroacetate]
